Laboratory results from patent US20210060016A1, “ANTICANCER AGENT” (JAPANESE FOUNDATION FOR CANCER RESEARCH, priority 2017, published 2021).
pIC50: −log10 of the molar value.

Assays:
[1] = biological target: T1, tankyrase 1 (Homo sapiens, UniProt O95271); assay: Tankyrase inhibitory activity test (ELISA, auto-poly(ADP-ribosyl)ation), TNKS1; assay type: biochemical; details: Flag-tagged tankyrase 1 (SAM+PARP), read-out: TNKS1 (inhibitory activity against tankyrase 1), IC50 rating
T1 construct: tankyrase 1 (1,024-1, 327aa, SAM+PARP); made in house; host or cells: cell-free protein expression system
Protocol: (§1) The enzymatic activity of tankyrase 1 and the enzymatic activity of tankyrase 2 were measured by the ELISA method based on assessment of auto-poly(ADP-ribosyl)ation to evaluate the tankyrase inhibitory activity of the compound prepared in each of Compound Examples (test compound) (inhibitory activity against tankyrase 1 (TNKS1) and inhibitory activity against tankyrase 2 (TNKS2)). First, Flag-tagged tankyrase 1 (1,024-1, 327aa, SAM+PARP) and tankyrase 2 (613-1, 116aa, ANK5+SAM+PARP) were synthesized with a cell-free protein expression system, and diluted with a Tris buffer solution (50 mM Tris-HCl (pH 8.0), 150 mM NaCl, 10% glycerol). 50 μL of the diluted tankyrase 1 or tankyrase 2 was added to a plate with an anti-FLAG M2 monoclonal antibody immobilized thereon (Anti-FLAG High-Sensitivity M2-Coated Plate) (Sigma-Aldrich), and the mixture was left to stand overnight at 4° C. Thereafter, the plate was washed four times with a PBS (PBST) buffer containing 0.1% TritonX-100.
(§2) Subsequently, the test compound diluted with an assay buffer (50 mM Tris-HCl (pH 8.0), 4 mM MgCl2, 0.2 mM DTT) (DMSO was used as a control) was added to each well of the plate, and the mixture was left to stand at room temperature for 10 minutes. Thereafter, a biotin-labeled NAD solution (225 μM NAD, 25 μM 6-Biotin-17-NAD (Travigen, Inc.)) was added and mixed as a donor substrate, and the mixture was reacted at 30° C. for 45 minutes. To blank wells was added distilled water instead of the biotin-labeled NAD solution. After the reaction, the plate was washed with a PBST buffer four times. Thereafter, HRP (horseradish peroxidase)-labeled streptavidin (Travigen, Inc.) was diluted with a PBS buffer by 1,000 times, and added to each well, and the mixture was reacted at room temperature for 20 minutes. The plate was washed with a PBST buffer four times, a chemiluminescent substrate solution TACS-Sapphire (Travigen, Inc.) was then added to each well, the mixture was reacted at room temperature for 20 minutes, and thechemiluminescence intensity was measured using a chemiluminescence measuring apparatus.
(§3) The residual enzymatic activity in the presence of the test compound was determined from the following expression. On the basis of the residual enzymatic activity at each of multiple concentrations of the test compound, the enzyme inhibitory activity was calculated in terms of a 50%-inhibition concentration (IC50 value) using data analysis software Origin (LightStone Corp.). Residual activity (%)={(chemiluminescence intensity with test compound added)−(chemiluminescence intensity of blank)}/{(chemiluminescence intensity of control)−(chemiluminescence intensity of blank))

[2] = biological target: T2, tankyrase 2 (Homo sapiens, UniProt Q9H2K2); assay: Tankyrase inhibitory activity test (ELISA, auto-poly(ADP-ribosyl)ation), TNKS2; assay type: biochemical; details: Flag-tagged tankyrase 2 (ANK5+SAM+PARP), read-out: TNKS2 (inhibitory activity against tankyrase 2), IC50 rating
T2 construct: tankyrase 2 (613-1, 116aa, ANK5+SAM+PARP); made in house; host or cells: cell-free protein expression system
Protocol: as §1, §2, §3

[3] = tested on: human colorectal cancer cell line COLO-320DM; assay: Cell proliferation inhibitory activity test (Celltiter-Glo); assay type: cell-based; details: 96 hours, read-out: COLO-320DM (cell proliferation inhibitory activity), G150 rating
Protocol: The cell proliferation inhibitory activity of the compound, which had been prepared in each of Compound Examples, against the human colorectal cancer cell line COLO-320DM was evaluated by Celltiter-Glo Luminescent Cell Viability Assay (Promega Corporation; G7573). COLO-320DM cells were cultured in RPMI-1640 medium containing 2 mM glutamine (Wako Pure Chemical Industries, Ltd; 189-02025) supplemented with 10% fetal bovine serum. The cultured cells were washed with PBS, and then dissociated with trypsin/EDTA, and a cell solution with 3×10^4 cells/mL was prepared.
Subsequently, the cell solution was seeded in a 96-well microplate (Thermo/Nunc Company; 136101) in an amount of 70 μL per well, and cultured overnight under the condition of 37° C. and 5% COz. The next day, a test compound solution obtained by diluting the test compound (DMSO solution) with a cell culture medium (final concentration of DMSO was 1%) was added in an amount of 10 μL per well, and the mixture was reacted under the condition of 37° C. and 5% CO2 for 96 hours (a 1% DMSO solution was used as a control). Thereafter, a Celltiter-Glo Luminescent Cell Viability Assay reagent was added (Promega Corporation; G7573) in an amount of 80 μL per well, the mixture was stirred with a shaker for 2 minutes while light was blocked with an aluminum foil, and the mixture was incubated at room temperature for 10 minutes.
Thereafter, a luminescence signal was measured with a luminometer (Biotech Company; Synergy). The ratio of cell proliferation in each compound addition group to cell proliferation in a control group containing no test compound solution, where cell proliferation in the control group is 100%, was determined, and the value of a compound concentration necessary for suppressing the amount of residual cells to 50% of that in the control (G150) was calculated as the cell proliferation inhibitory activity. For the COLO-320DM (cell proliferation inhibitory activity against COLO-320DM) of each test compound as measured through the above-mentioned method, a test compound having a G150 value of less than 1 μM was rated “A”, a test compound having a G150 value of 1 μM or more and less than 10 μM was rated “B”, a test compound having a G150 value of 10 μM or more was rated “C”, and an unevaluated test compound was designated as “NT”.

T2 sequence (Q9H2K2 613-1166): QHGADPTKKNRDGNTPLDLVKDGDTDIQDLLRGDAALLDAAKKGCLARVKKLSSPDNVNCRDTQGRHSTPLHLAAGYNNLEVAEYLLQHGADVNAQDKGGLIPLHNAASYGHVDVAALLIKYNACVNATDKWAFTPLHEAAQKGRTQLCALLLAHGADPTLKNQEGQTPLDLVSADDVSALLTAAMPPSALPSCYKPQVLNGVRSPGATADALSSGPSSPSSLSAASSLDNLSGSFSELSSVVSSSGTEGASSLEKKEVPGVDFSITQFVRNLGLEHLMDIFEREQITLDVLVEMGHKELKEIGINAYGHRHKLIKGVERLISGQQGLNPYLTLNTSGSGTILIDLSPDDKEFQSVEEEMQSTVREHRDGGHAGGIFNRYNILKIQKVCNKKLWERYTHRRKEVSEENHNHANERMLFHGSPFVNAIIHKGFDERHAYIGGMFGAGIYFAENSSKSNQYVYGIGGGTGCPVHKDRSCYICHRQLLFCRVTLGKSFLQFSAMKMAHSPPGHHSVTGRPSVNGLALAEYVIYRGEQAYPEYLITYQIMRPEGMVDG
T1 sequence (O95271 1024-1327): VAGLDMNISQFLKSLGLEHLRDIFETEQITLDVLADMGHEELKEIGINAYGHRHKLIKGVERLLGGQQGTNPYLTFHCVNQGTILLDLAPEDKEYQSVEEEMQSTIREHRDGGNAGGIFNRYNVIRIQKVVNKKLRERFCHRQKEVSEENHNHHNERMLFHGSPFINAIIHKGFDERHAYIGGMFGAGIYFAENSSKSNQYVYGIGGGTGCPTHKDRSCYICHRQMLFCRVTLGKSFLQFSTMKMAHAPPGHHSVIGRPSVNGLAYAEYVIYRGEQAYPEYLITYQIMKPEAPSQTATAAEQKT

Row | SMILES | pIC50 [1] | pIC50 [2] | pIC50 [3]
1 | CCOc1ccc(-c2n[nH]nc2[C@H]2NC(=O)c3cccc(C)c3N2)cc1 [Compound Example 101, (2R)-2-[5-(4-Ethoxyphenyl)-2H-1,2,3-triazol-4-yl]-8-methyl-2,3-dihydro-1H-quinazolin-4-one] | > 7.70 | > 7.70 | > 6.00
2 | COc1ccc(-c2c[nH]nc2C2NC(=O)c3cccc(C)c3N2)cc1 (stereo not drawn) [Compound Example 113, 2-[4-(4-Methoxyphenyl)-1H-pyrazol-3-yl]-8-methyl-2,3-dihydro-1H-quinazolin-4-one] | > 7.70 | 6.70 to 7.70 | ≤ 5.00
